The results in this text go back to patent US20250320205A1, “STAT6 DEGRADERS” (Gilead Sciences, Inc., priority 2024, published 2025).

The target in assay [1] is T1, STAT6 (Homo sapiens, UniProt P42226).
T1 construct: These cells express endogenous STAT6; host or cells: HeLa LgBiT clone 4.14 (CRISPR knock-in of HiBiT into the endogenous STAT6 gene)
T1 sequence (P42226 1-847): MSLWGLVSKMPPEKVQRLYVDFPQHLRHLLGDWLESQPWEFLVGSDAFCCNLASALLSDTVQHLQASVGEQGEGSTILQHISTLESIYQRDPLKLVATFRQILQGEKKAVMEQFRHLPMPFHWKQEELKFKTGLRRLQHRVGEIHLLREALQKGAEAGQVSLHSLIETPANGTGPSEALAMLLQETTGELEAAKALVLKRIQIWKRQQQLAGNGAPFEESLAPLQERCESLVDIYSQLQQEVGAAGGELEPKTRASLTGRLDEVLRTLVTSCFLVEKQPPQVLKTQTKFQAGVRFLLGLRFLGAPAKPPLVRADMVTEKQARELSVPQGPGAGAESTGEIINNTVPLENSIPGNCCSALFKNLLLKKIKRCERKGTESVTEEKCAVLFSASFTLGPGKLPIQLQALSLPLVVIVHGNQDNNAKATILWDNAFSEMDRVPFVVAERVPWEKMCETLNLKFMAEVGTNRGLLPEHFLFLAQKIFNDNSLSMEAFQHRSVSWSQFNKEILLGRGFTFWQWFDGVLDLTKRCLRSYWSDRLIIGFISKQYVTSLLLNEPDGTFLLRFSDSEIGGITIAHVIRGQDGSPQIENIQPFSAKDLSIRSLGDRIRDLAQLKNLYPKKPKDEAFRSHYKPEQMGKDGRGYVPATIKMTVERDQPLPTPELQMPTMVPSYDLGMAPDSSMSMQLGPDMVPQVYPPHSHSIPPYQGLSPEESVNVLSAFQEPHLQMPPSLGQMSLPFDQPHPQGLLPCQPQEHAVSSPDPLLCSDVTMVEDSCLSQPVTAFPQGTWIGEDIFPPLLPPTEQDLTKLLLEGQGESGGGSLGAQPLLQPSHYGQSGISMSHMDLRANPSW
The assay is described as follows: STAT6 Degrader Assay (HiBiT based, HeLa LgBiT clone 4.14 cells). The conditions noted are these: geometric mean across assay runs and compound batches; DC50 provided for test compounds with >80% Emax; read-out: STAT6 degradation DC50. The class given is cell-based. Put shortly: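 DC50 (nM) comes from NanoBiT luminescence of HiBiT-knock-in STAT6 in HeLa LgBiT clone 4.14 cells, treated 4-24 h at 37° C. Luminescence reflects non-degraded STAT6, with 50 μM terfenadine wells taken as full degradation.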
For orientation: With HiBiT, luminescence reflects the tagged protein that the partner subunit can reach.

Assay [2] concerns Eotaxin-3 (CCL26) release. The assay is described as follows: Human Whole Blood Eotaxin-3 Assay (IL-4 stimulated). The class given is cell-based. The settings on record: Homo sapiens; geometric mean across assay runs and compound batches; EC50 provided for test compounds with >80% Emax. The protocol: This was a human whole blood assay using recombinant human Interleukin 4 to stimulate the blood and measuring the ability of the test compounds to inhibit eotaxin-3 release. The biological activities of the test compounds have been tested in human whole blood stimulated with IL-4 measuring Eotaxin-3 release. The test compounds were added to 384 well clear flat-bottom plate in a 4-fold serial dilution in triplicates using a liquid handler. Human whole blood stabilized in lithium-heparin tubes was added in a volume of 65 μL per well, resulting in a final DMSO concentration of 0.5%. The plate is incubated for 2 h at 37° C. under 5% CO2/95% air. Subsequently, 5 μL of recombinant human IL-4 (R&D Systems, cat #204-ILB) was added to the wells to a final concentration of 400 pM. The plate was incubated for 48 h at 37° C. under 5% CO2/95% air. The plate was spun down for 10 minutes at 500×g and 20 μL supernatant was harvested and transferred to a 384 well v-bottom plate using a liquid handler and stored at −20° C. until further analysis. 10 μL supernatant was used to measure the level of Eotaxin-3 (CCL26) using Human Eotaxin-3 MSD kit from Mesocsale (Cat #K251UEK-4). The assay was performed according to the manufacture instructions.

For `CNc1cc(=O)n(-c2ccnc3c2cc([C@H](C)N2CC=C(c4c(C)cc(C(=O)N5CCn6nc(CC7(O)CCN(c8ccc(NC9CCC(=O)NC9=O)c(OC)c8)CC7)cc6C5)cc4F)CC2)n3C)cc1F` (stereo partly drawn) [Example 2g7, 3-((4-(4-((5-(3-fluoro-4-(1-((S)-1-(4-(5-fluoro-4-(meth-ylamino)-2-oxopyridin-1(2H)-yl)-1-methyl-1H-pyrrolo[2,3-b]pyridin-2-yl)ethyl)-1,2,3,6-tetrahydropyridin-4-yl)-5-methylbenzoyl)-4,5,6,7-tetra-hydropyrazolo[1,5-a]pyrazin-2-yl)methyl)-4-hydroxy-piperidin-1-yl)-2-methoxy-phenyl)amino)-piperidine-2,6-dione], the DC50 in assay [1] is 10.3 nM. Moreover, the EC50 in assay [2] amounted to 15.4 nM.
With `CNc1ccn(-c2ccnc3c2cc(CN2CCC(c4c(F)cc(C(=O)N5CCn6nc(CN7CCC(c8ccc(NC9CCC(=O)NC9=O)cc8F)CC7)cc6C5)cc4F)CC2)n3C)c(=O)c1` (single isomer, unassigned) [Example 2g101], in assay [1], the DC50 is 1 nM. Besides, the EC50 in assay [2] worked out at 0.4 nM.
With `Cc1cc(C(=O)N2CCn3nc(CN4CCC(c5ccc(NC6CCC(=O)NC6=O)cc5F)CC4)cc3C2)cc(F)c1C1=CCN([C@@H](C)c2cc3c(-n4cc(F)c5c(c4=O)CCN5)ccnc3n2C)CC1` (stereo partly drawn) [Example 2g14, 3-((3-fluoro-4-(1-((5-(3-fluoro-4-(1-((S)-1-(4-(7-fluoro-4-oxo-1,2,3,4-tetra-hydro-5H-pyrrolo[3,2-c]pyridin-5-yl)-1-methyl-1H-pyrrolo[2,3-b]pyridin-2-yl)-ethyl)-1,2,3,6-tetrahydro-pyridin-4-yl)-5-methylbenzo-yl)-4,5,6,7-tetrahydropyrazolo [1,5-a]pyrazin-2-yl)methyl)-piperidin-4-yl)phenyl)amino)-piperidine-2,6-dione], the half-maximal degradation concentration (DC50) in assay [1] worked out at 2.2 nM. Besides, a half-maximal effect in assay [2] (EC50) was put at 3.5 nM.
For `CNc1cc(=O)n(-c2ccnc3c2cc(CN2CCC(c4c(F)cc(C(=O)N5CCC(CN6CCN(c7ccc(N[C@@H]8CCC(=O)NC8=O)cc7F)CC6)CC5)cc4F)CC2)n3C)cc1F` (single isomer, unassigned) [Example 2g33] the same measures were 50.8 nM and 64.7 nM.
`Cc1cc(C(=O)N2CCn3nc(CN4CCC(c5ccc(NC6CCC(=O)NC6=O)cc5F)CC4)cc3C2)cc(F)c1C1=CCN([C@@H](C)c2cc3c(-n4ccc5c(c4=O)CCN5)ccnc3n2C)CC1` (stereo partly drawn) [Example 2g25, 3-((3-fluoro-4-(1-((5-(3-fluoro-5-methyl-4-(1-((S)-1-(1-methyl-4-(4-oxo-1,2,3,4-tetrahydro-5H-pyrrolo[3,2-c]pyridin-5-yl)-1H-pyrrolo[2,3-b]pyridin-2-yl)ethyl)-1,2,3,6-tetrahydropyridin-4-yl)benzo-yl)-4,5,6,7-tetrahydropyrazolo [1,5-a]pyrazin-2-yl)methyl)-piperidin-4-yl)phenyl)amino)-piperidine-2,6-dione]: the DC50 in assay [1] worked out at 0.6 nM. The compound further gave an EC50 in assay [2] of 0.4 nM.
With `CNc1ccn(-c2ccnc3c2cc([C@H](C)N2CC=C(c4c(C)cc(C(=O)N5CCC(CN6CCN(c7ccc(NC8CCC(=O)NC8=O)cc7F)C[C@@H]6C)CC5)cc4F)CC2)n3C)c(=O)c1` (stereo partly drawn) [Example 2g97, 3-((3-fluoro-4-((S)-4-((1-(3-fluoro-5-methyl-4-(1-((S)-1-(1-methyl-4-(4-(methyl-amino)-2-oxopyridin-1(2H)-yl)-1H-pyrrolo[2,3-b]pyridin-2-yl)ethyl)-1,2,3,6-tetrahydro-pyridin-4-yl)benzoyl)piperi-din-4-yl)methyl)-3-methyl-piperazin-1-yl)phenyl)amino)-piperidine-2,6-dione], the DC50 in assay [1] came out at 20.8 nM. The compound further had an EC50 in assay [2] of 36.7 nM.
For `CNc1ccn(-c2ccnc3c2cc(CN2CCC(c4c(F)cc(C(=O)N5CCn6nc(CN7CCC(c8ccc(NC9CCC(=O)NC9=O)cc8F)CC7)cc6C5)cc4F)CC2)n3C)c(=O)c1` (stereo not drawn) [Example 2g100, 3-((4-(1-((5-(3,5-difluoro-4-(1-((1-methyl-4-(4-(methyl-amino)-2-oxopyridin-1(2H)-yl)-1H-pyrrolo[2,3-b]pyridin-2-yl)methyl)piperidin-4-yl)-benzoyl)-4,5,6,7-tetrahydro-pyrazolo[1,5-a]pyrazin-2-yl)-methyl)piperidin-4-yl)-3-fluorophenyl)amino)piperi-dine-2,6-dione], in that order: 1.2 nM and 1.8 nM.
As to `CNc1ccn(-c2ccnc3c2cc([C@H](C)N2CC=C(c4c(C)cc(C(=O)N5CCn6nc(CN7CCC(c8cc(OC)c(NC9CCC(=O)NC9=O)cc8F)CC7)cc6C5)cc4F)CC2)n3C)c(=O)c1` (stereo partly drawn) [Example 2g128, 3-((5-fluoro-4-(1-((5-(3-fluoro-5-methyl-4-(1-((S)-1-(1-methyl-4-(4-(methyl-amino)-2-oxopyridin-1(2H)-yl)-1H-pyrrolo[2,3-b]pyridin-2-yl)ethyl)-1,2,3,6-tetrahydro-pyridin-4-yl)benzoyl)-4,5,6,7-tetrahydropyrazolo[1,5-a]pyr-azin-2-yl)methyl)piperidin-4-yl)-2-methoxyphenyl)amino)-piperidine-2,6-dione], the DC50 in assay [1] worked out at 0.1 nM. For the same compound, the response in assay [2] was half-maximal at 0.2 nM (EC50).
For `CNc1ccn(-c2ccnc3c2cc([C@H](C)N2CC=C(c4c(C)cc(C(=O)N5CCC(CN6CCN(c7ncc(NC8CCC(=O)NC8=O)cc7F)C[C@H]6C)CC5)cc4F)CC2)n3C)c(=O)c1` (stereo partly drawn) [Example 2g113, 3-((5-fluoro-6-((R)-4-((1-(3-fluoro-5-methyl-4-(1-((S)-1-(1-methyl-4-(4-(methyl-amino)-2-oxopyridin-1(2H)-yl)-1H-pyrrolo[2,3-b]pyridin-2-yl)ethyl)-1,2,3,6-tetrahydro-pyridin-4-yl)benzoyl)piperi-din-4-yl)methyl)-3-methyl-piperazin-1-yl)pyridin-3-yl)-amino)piperidine-2,6-dione], in that order: 3.5 nM and 13.8 nM.
For `CNc1ccn(-c2ccnc3c2cc([C@@H](C)N2CC=C(c4c(F)cc(C(=O)N5CCn6nc(CN7CCC(c8ccc(NC9CCC(=O)NC9=O)cc8F)CC7)cc6C5)cc4F)CC2)n3C)c(=O)c1` (stereo partly drawn) [Example 2g103, 3-((4-(1-((5-(3,5-difluoro-4-(1-((R)-1-(1-methyl-4-(4-(methylamino)-2-oxopyridin-1(2H)-yl)-1H-pyrrolo[2,3-b]pyridin-2-yl)ethyl)-1,2,3,6-tetrahydropyridin-4-yl)benzo-yl)-4,5,6,7-tetrahydropyrazolo [1,5-a]pyrazin-2-yl)methyl)-piperidin-4-yl)-3-fluorophen-yl)amino)piperidine-2,6-dione] the same measures were 8.8 nM and 13.1 nM.
In the case of `CNc1cc(=O)n(-c2ccnc3c2cc([C@H](C)N2CC=C(c4c(C)cc(C(=O)N5CCn6nc(CN7CCC(c8ccc(N[C@@H]9CCC(=O)NC9=O)cc8F)CC7)cc6C5)cc4F)CC2)n3C)cc1F` (single isomer, unassigned) [Example 2g5], the 50% degradation concentration (DC50) in assay [1] stood at 0.5 nM. Also, in assay [2], the EC50 came out at 2.7 nM.
Consider `CNc1cc(=O)n(-c2ccnc3c2cc([C@H](C)N2CC=C(c4c(F)cc(C(=O)N5CCC(CN6CCN(c7ccc(NC8CCC(=O)NC8=O)cc7F)CC6)CC5)cc4F)CC2)n3C)cc1F` (stereo partly drawn) [Example 2g119, 3-((4-(4-((1-(3,5-difluoro-4-(1-((S)-1-(4-(5-fluoro-4-(methylamino)-2-oxopyridin-1(2H)-yl)-1-methyl-1H-pyr-rolo[2,3-b]pyridin-2-yl)ethyl)-1,2,3,6-tetrahydropyridin-4-yl)benzoyl)piperidin-4-yl)-methyl)piperazin-1-yl)-3-fluorophenyl)amino)piperi-dine-2,6-dione], for which the DC50 in assay [1] came to 14 nM. This compound also came in with an EC50 in assay [2] of 48.2 nM.

One may read the DC50 as the concentration at which degradation of the target reaches its halfway point. What is called EC50 is the midpoint of the concentration-response curve.
